According to patent publication US10723741B1, “DNA polymerase IIIC inhibitors and use thereof” (Acurx Pharmaceuticals, LLC, priority 2018, dated 2020):
Values after ≈ are worked out from the molar mass of the structure shown. Like-named read-outs stand apart in the source and are kept apart here.

How the values were obtained:
Assay type in all cases: cell-based
[1] = tested on: Enterococcus faecalis ATCC 29212; test: Broth microdilution MIC, E. faecalis ATCC 29212; details: ATCC29212, broth microdilution, 37° C., 20 hours, read-out: MIC E. faecalis ATCC 29212
In short: (§1)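 Broth microdilution in strain-specific test medium with ~5.0×10^5 cfu/ml inoculum, 1% DMSO and two-fold compound dilutions from 64 to 0.0625 μg/ml. Plates were held 20 hours at 37° C in ambient air. S. pneumoniae colonies were grown beforehand on blood agar in 5% CO2.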

[2] = tested on: Enterococcus faecium ATCC 700221 (VRE); test: Broth microdilution MIC, E. faecium ATCC 700221 (VRE); details: Enterococcus faecium, broth microdilution, 37° C., 20 hours
In short: as §1

[3] = tested on: Staphylococcus aureus NRS384 (MRSA); test: Broth microdilution MIC, S. aureus NRS384 (MRSA); details: Staphylococcus aureus, broth microdilution, 37° C., 20 hours
In short: as §1

[4] = tested on: Bacillus subtilis ATCC 6633; test: Broth microdilution MIC, B. subtilis ATCC 6633; details: ATCC6633, broth microdilution, 37° C., 20 hours, read-out: MIC B. subtilis ATCC 6633
In short: as §1

[5] = read-out: MIC E. faecium ATCC 700221 (VRE)
[6] = MHIIB, read-out: MIC against E. faecium ATCC 700221 (VRE)
[7] = MHIIB, read-out: MIC against S. aureus NRS 384 (MRSA)

Row | SMILES | MIC [1] [µg/mL] | MIC [2, 5] [µg/mL] | MIC [2, 6] [µg/mL] | MIC ([3]; read-out: MIC NRS 384 (MRSA)) [µg/mL] | MIC [3, 7] [µg/mL] | MIC [4] [µg/mL]
1 | O=c1[nH]c(NCc2ccc(Cl)c(Cl)c2)nc2cnn(-c3ccccc3)c12 [Compound 212, 5-[(3,4-dichlorophenyl)methylamino]-1-phenyl-6H-pyrazolo[4,3-d]pyrimidin-7-one] | > 64 | 1 (≈ 2.59 µM) | ≤ 1 | 1 (≈ 2.59 µM) | ≤ 1 | 1 (≈ 2.59 µM)
2 | C=CCn1ncc2nc(NCc3ccc(Cl)c(Cl)c3)[nH]c(=O)c21 [Compound 56, 1-allyl-5-((3,4-dichlorobenzyl)amino)-1H-pyrazolo[4,3-d]pyrimidin-7(6H)-one] | 2 (≈ 5.71 µM) | 0.5 (≈ 1.43 µM) | ≤ 1 | 0.5 (≈ 1.43 µM) | ≤ 1 | 0.25 (≈ 0.714 µM)
3 | CN(C)CCOCCn1ncc2nc(NCc3ccc(Cl)c(Cl)c3)[nH]c(=O)c21.Cl [Compound 211, 5-((3,4-dichlorobenzyl)amino)-1-(2-(2-(dimethylamino)ethoxy)ethyl)-1H-pyrazolo[4,3-d]pyrimidin-7(6H)-one hydrochloride] | 16 | 8 | – | 32 | – | 2
4 | O=c1[nH]c(NCc2ccc(Cl)c(Cl)c2)nc2cnn(C3CC3)c12 [Compound 213, 1-Cyclopropyl-5-((3,4-dichlorobenzyl)amino)-1H-pyrazolo[4,3-d]pyrimidin-7(6H)-one] | 2 (≈ 5.71 µM) | 1 (≈ 2.86 µM) | ≤ 1 | 1 (≈ 2.86 µM) | ≤ 1 | 0.5 (≈ 1.43 µM)
5 | COC(=O)CCCCn1ncc2nc(NCc3ccc(Cl)c(Cl)c3)[nH]c(=O)c21 [Compound 218, methyl 5-[5-[(3,4-dichlorophenyl)methylamino]-7-oxo-6H-pyrazolo[4,3-d]pyrimidin-1-yl]pentanoate] | 2 (≈ 4.71 µM) | 1 (≈ 2.36 µM) | ≤ 1 | 1 (≈ 2.36 µM) | ≤ 1 | 0.5 (≈ 1.18 µM)
6 | Cl.O=c1[nH]c(NCc2ccc(Cl)c(Cl)c2)nc2cnn(C3CCN(C4CCOCC4)CC3)c12 [Compound 242, 5-((3,4-dichlorobenzyl)amino)-1-(1-(tetrahydro-2H-pyran-4-yl)piperidin-4-yl)-1H-pyrazolo[4,3-d]pyrimidin-7(6H)-one hydrochloride] | 4 | 2 | – | 4 | – | 2
7 | Cl.Cl.O=c1[nH]c(NCc2ccc(Cl)c(Cl)c2)nc2cnn(CCOCCN3CCNCC3)c12 [Compound 167, 5-[(3,4-dichlorophenyl)methylamino]-1-[2-(2-piperazin-1-ylethoxy)ethyl]-6H-pyrazolo[4,3-d]pyrimidin-7-one] | 64 | 64 | – | > 64 | – | 16
8 | O=C([C@@H](O)[C@H](O)CO)N1CCC(n2ncc3nc(NCc4ccc(Cl)c(Cl)c4)[nH]c(=O)c32)CC1 [Compound 276, 5-((3,4-dichlorobenzyl)amino)-1-(1-((2S,3R)-2,3,4-trihydroxybutanoyl)piperidin-4-yl)-1H-pyrazolo[4,3-d]pyrimidin-7(6H)-one] | 64 (≈ 125 µM) | 32 (≈ 62.6 µM) | – | 64 (≈ 125 µM) | – | 16 (≈ 31.3 µM)
9 | O=c1[nH]c(NCc2ccc(Cl)c(Cl)c2)nc2cn[nH]c12 [Compound 77, 5-((3,4-dichlorobenzyl)amino)-1H-pyrazolo[4,3-d]pyrimidin-7(6H)-one] | 8 (≈ 25.8 µM) | 4 (≈ 12.9 µM) | – | 8 (≈ 25.8 µM) | – | 4 (≈ 12.9 µM)
10 | COCCn1ncc2nc(NCc3ccc(Cl)c(Cl)c3)[nH]c(=O)c21 [Compound 126, 5-((3,4-dichlorobenzyl)amino)-1-(2-methoxyethyl)-1H-pyrazolo[4,3-d]pyrimidin-7(6H)-one] | 4 (≈ 10.9 µM) | 2 (≈ 5.43 µM) | – | 2 (≈ 5.43 µM) | – | 1 (≈ 2.72 µM)
11 | Cn1ncc2nc(NCc3ccc(Cl)c(Cl)c3)[nH]c(=O)c21 [Compound 2, 5-((3,4-Dichlorobenzyl)amino)-1-methyl-1H-pyrazolo[4,3-d]pyrimidin-7(6H)-one] | 2 (≈ 6.17 µM) | 1 (≈ 3.08 µM) | ≤ 1 | 1 (≈ 3.08 µM) | ≤ 1 | 1 (≈ 3.08 µM)
12 | O=C(O)CCC(=O)N1CCC(n2ncc3nc(NCc4ccc(Cl)c(Cl)c4)[nH]c(=O)c32)CC1 [Compound 273, 4-(4-(5-((3,4-dichlorobenzyl)amino)-7-oxo-6,7-dihydro-1H-pyrazolo[4,3-d]pyrimidin-1-yl)piperidin-1-yl)-4-oxobutanoic Acid] | 64 (≈ 130 µM) | 32 (≈ 64.9 µM) | – | > 64 | – | > 64
13 | Cc1nn(C)c2c(=O)[nH]c(NCc3ccc(Cl)c(Cl)c3)nc12 [Compound 44, 5-((3,4-dichlorobenzyl)amino)-1,3-dimethyl-1H-pyrazolo[4,3-d]pyrimidin-7(6H)-one] | 4 (≈ 11.8 µM) | 4 (≈ 11.8 µM) | ≤ 1 | 2 (≈ 5.91 µM) | ≤ 1 | 2 (≈ 5.91 µM)
14 | O=c1[nH]c(NCc2ccc(Cl)c(Cl)c2)nc2cnn(C3CCCC3)c12 [Compound 214, 1-cyclopentyl-5-((3,4-dichlorobenzyl)amino)-1H-pyrazolo[4,3-d]pyrimidin-7(6H)-one] | 2 (≈ 5.29 µM) | 1 (≈ 2.64 µM) | ≤ 1 | 1 (≈ 2.64 µM) | ≤ 1 | 0.5 (≈ 1.32 µM)
15 | Cl.O=c1[nH]c(NCc2ccc(Cl)c(Cl)c2)nc2cnn(CC3CNCCO3)c12 (centres unmarked) [Compound 149, 5-((3,4-dichlorobenzyl)amino)-1-(morpholin-2-ylmethyl)-1H-pyrazolo[4,3-d]pyrimidin-7(6H)-one hydrochloride] | 16 | 8 | – | 32 | – | 2
